Measurements reported in the SangsterLogP compilation.

Assay: method code SF-HPLC, from DOI: 10.1016/s0968-0896(00)00015-8, PMID: 10819159
Details: pH 7.4

logD	SMILES
3.96	CC(C)(C)C(=O)OCN(Nc1ccc([N+](=O)[O-])cc1Oc1ccccc1)S(C)(=O)=O
2.15	Nc1ccc(S(=O)(=O)N(COC(=O)c2ccccc2)c2ncccn2)cc1
1.47	Nc1ccc(S(=O)(=O)N(COC(=O)c2ccccc2)c2cncs2)cc1
2.85	COC(=O)C1CCCN1C(=O)OCN(c1ccc([N+](=O)[O-])cc1Oc1ccccc1)S(C)(=O)=O (stereo not given)
3.59	Cc1cc(C)nc(N(COC(=O)c2ccccc2)S(=O)(=O)c2ccc(N)cc2)n1
3.07	Cc1cc(C)nc(N(COC(=O)C(C)(C)C)S(=O)(=O)c2ccc(N)cc2)n1
2.28	CCOC(=O)CNC(=O)OCN(c1ccc([N+](=O)[O-])cc1Oc1ccccc1)S(C)(=O)=O
3.97	CS(=O)(=O)N(COC(=O)c1ccccc1)c1ccc([N+](=O)[O-])cc1Oc1ccccc1
2.2	CCOC(=O)CN(C)C(=O)OCN(c1ccc([N+](=O)[O-])cc1Oc1ccccc1)S(C)(=O)=O
2.83	Cc1noc(N(COC(=O)c2ccccc2)S(=O)(=O)c2ccc(N)cc2)c1C
